Literature values, collected in patent US11737988B2, “Anti-hypertensive and cholesterol-lowering fixed-dose combination and method of manufacture” (CardioPharma, Inc., priority 2019, dated 2023).

Conditions: cholesterol-lowering drugs (statins); known to those of skill in the art

O=C(O)C[C@H](O)C[C@H](O)/C=C/c1c(C2CC2)nc2ccccc2c1-c1ccc(F)cc1 [pitvastatin]
bioavailability: 60%

COCc1c(C(C)C)nc(C(C)C)c(/C=C/[C@@H](O)C[C@@H](O)CC(=O)O)c1-c1ccc(F)cc1 [cerivastatin]
bioavailability: 60%
